{
  "source": "patent US20240325363A1",
  "about": "“COMPOSITION FOR TREATMENT OF ANTICANCER AGENT-RESISTANT CANCER” (ONCOCROSS CO.,LTD., priority 2021, published 2024)",
  "key": {"[1]": {"test_system": "KRAS", "assay": "KRAS mRNA expression by Endpoint PCR / qRT-PCR in cancer cell lines", "format": "cell-based, human", "details": "for KRAS expression: HCT116 cells, comparison with other CDK inhibitors", "description": "(§1) In order to confirm the effect of inhibiting KRAS expression by GW8510, a human colon cancer cell line HCT116 with a KRAS G13D mutation, a human prostate cancer cell line PC-3 with a KRAS G13D mutation, a human breast cancer cell line MCF7 as a KRAS wild-type cell line, a human pancreatic cancer cell line MIA PaCa-2 with a KRAS G12C mutation, and a human pancreatic cancer cell line PANC-1 with a KRAS G12D mutation were dispensed in a 6-well plate, and treated with GW8510 at 0, 1, 5 or 10 μM of concentration for 3, 6, 24 or 48 hours. Thereafter, RNA was extracted from the cells using a TRIzol™ Reagent (Thermo Fisher Scientific Inc., USA) and then cDNA was synthesized using M-MLV reverse-transcriptase (ELPIS Biotech, Korea), 2.5 mM dNTP (TransGen Biotech, China), and oligo dT15 (bioneer, Korea). Endpoint PCR was performed using an Endpoint PCR solution mixed with the synthesized cDNA, Taq polymerase master mix, and primers shown in Table 1 below, and a QuantStudio 3 Real-Time PCR Instrument (Thermo Fisher Scientific Inc., USA). Thereafter, the mRNA level of KRAS was confirmed by loading the Endpoint PCR solution on an agarose gel. In addition, the mRNA levels of nuclear transcription factor Y (NYFA) and X-linked inhibitor of apoptosis protein (XIAP) as a protein of inhibiting apoptosis, were also confirmed together with KRAS.\n(§2) A colon cancer cell line HCT116 (KRAS G13D mut), pancreatic cancer cell lines PANC-1 (KRAS G12D mut) and MIA PaCa-2 (KRAS G12C mut), and a breast cancer cell line MCF7 (KRAS wt) were dispensed in a 6-well plate, and treated with GW8510 at 0, 1, 5 or 10 μM of concentration for 24 hours, and then Endpoint PCR was performed. In addition, a qRT-PCR solution was prepared by mixing SYBR Green Master Mix, the cDNA of Example 2-1, and the primers in Table 1, and qRT-PCR was performed with QuantStudio 3 Real-Time PCR Instrument (Thermo Fisher Scientific Inc., USA) to quantify the gene expression levels. In addition, the phenotypes of the cancer cell line were observed by treatment of GW8510 by using the colon cancer cell line HCT116 treated with GW8510 at 0 or 10 μM of concentration for 24 hours, and the protein expression levels of pan ras, K-ras, and β-actin were measured by immunoblot. Specifically, the colon cancer cell line HCT116 treated with GW8510 at 0 or 10 μM of concentration for 24 hours was lysed with an RIPA buffer (Curebio, Korea), and then the cell lysate was centrifuged and the supernatant was taken. The cell lysate supernatant was added with a 5×SDS sample buffer and then boiled for 10 minutes, and electrophoresis was performed using a 12% SDS polyacrylamide gel. After electrophoresis, a protein was transferred to a PVDF membrane and then blocked with 5% skim milk (TBS-T) at room temperature for 1 hour. Thereafter, primary antibodies (anti-pan ras, anti-K-ras, and anti-β-actin) diluted in a blocking solution at 1:1000 were added and incubated at 4° C. overnight, and then a membrane was washed three times with 0.05% TBS-T, and a secondary antibody (horseradish peroxidase-conjugated 2nd Ab) diluted at 1:10000 was added and incubated for 1 hour at room temperature. The membrane was washed three times with 0.05% TBS-T, developed with an enhanced chemiluminescence (ECL) solution, and exposed to an X-ray film.\n(§3) To determine whether the inhibition of KRAS by GW8510 was regulated through Cdk2 inhibition, HCT116 cells were treated with other CDK inhibitors, such as PKC inhibitor H7, Cdk2 inhibitor CVT-313, and Cdk4/6 inhibitor PD0332991, other than GW8510 (Cdk2 inhibitor) for 24 hours, respectively, and then to analyze the cell cycle, the cells were subjected to PI staining and confirmed by flow cytometry, and the KRAS expression levels were confirmed by Endpoint PCR and qRT-PCR."}, "[2]": {"test_system": "HCT116 cells", "assay": "Cell cycle analysis by PI staining and flow cytometry", "format": "cell-based, human", "details": "24 hours, PI staining flow cytometry", "description": "as §3"}, "[3]": {"test_system": "HCT116 cells xenograft", "assay": "HCT116 xenograft model in nude mice, tumor size", "format": "in vivo, Balb/c nude mice", "details": "GW8510 10 mg/kg i.p. three times a week, cetuximab 1 mg/mouse i.p. once a week", "description": "Experimental animals used were 36 6-week-old Balb/c nude mice. The experimental diet and drinking water were taken freely, and all experimental diets were stored in a refrigerator during a breeding period. The mice were pre-bred with regular feed to be adapted to a breeding environment for 7 days before the start of the experiment and then divided into a total of 4 groups. […] In all mice, HCT116 cells were injected with 1×10^6 S.C. at 7 weeks of age to prepare a xenograft model. […] The tumor size was measured using Equation of (long axis×short axis×short axis)/2 and measured three times a week at the same time."}, "[4]": {"test_system": "XIAP", "assay": "XIAP mRNA expression by Endpoint PCR in cancer cell lines", "format": "cell-based, human", "description": "as §1"}, "[5]": {"test_system": "NFYA", "assay": "NFYA mRNA expression by Endpoint PCR in cancer cell lines", "format": "cell-based, human", "description": "as §1"}, "[6]": {"test_system": "KRAS", "assay": "KRAS protein expression by immunoblot", "format": "cell-based, human", "details": "HCT116, GW8510 0 or 10 μM, 24 hours", "description": "as §2, with “After electrophoresis, a protein was transferred to a PVDF membrane and then blocked with 5% skim milk (TBS-T) at room temperature for 1 hour. Thereafter, primary antibodies (anti-pan ras, anti-K-ras, and anti-β-actin) diluted in a blocking solution at 1:1000 were added and incubated at 4° C. overnight, and then a membrane was washed three times with 0.05% TBS-T, and a secondary antibody (horseradish peroxidase-conjugated 2nd Ab) diluted at 1:10000 was added and incubated for 1 hour at room temperature. The membrane was washed three times with 0.05% TBS-T, developed with an enhanced chemiluminescence (ECL) solution, and exposed to an X-ray film.” left out"}, "[7]": {"details": "24 hours, Endpoint PCR and qRT-PCR"}, "[8]": {"details": "all of the cell lines (HCT116, PC-3, MCF7, MIA PaCa-2, PANC-1)"}},
  "data": [
    {"compound": "COc1ccc(CNc2nc(N(CCO)CCO)nc3c2ncn3C(C)C)cc1", "note": "[CVT-313, reference compound]", "values": [
      {"measurement": "KRAS expression", "setting": "[1]; [7]", "result": "no change in KRAS expression"},
      {"measurement": "cell cycle", "setting": "[2]", "result": "arrested in the GO/G1 phase"}
    ]},
    {"compound": "O=C1Nc2ccc3ncsc3c2/C1=C/Nc1ccc(S(=O)(=O)Nc2ccccn2)cc1", "note": "[GW8510]", "values": [
      {"measurement": "tumor size", "setting": "[3]", "result": "tended to decrease compared to the control group"},
      {"measurement": "mRNA expression level of XIAP", "setting": "[4]; HCT116 cells (KRAS G13D)", "result": "also decreased"},
      {"measurement": "mRNA level of XIAP", "setting": "[4]; [8]", "result": "also decreased"},
      {"measurement": "mRNA expression level of NFYA", "setting": "[5]; HCT116 cells (KRAS G13D)", "result": "also decreased"},
      {"measurement": "mRNA level of NFYA", "setting": "[5]; [8]", "result": "also decreased"},
      {"measurement": "KRAS transcription level", "setting": "[1]; HCT116, PANC-1, MIA PaCa-2 and MCF7, GW8510 0, 1, 5 or 10 μM, 24 hours, Endpoint PCR and qRT-PCR", "result": "significantly reduced"},
      {"measurement": "KRAS expression", "setting": "[1]; [7]", "result": "inhibited the KRAS expression"},
      {"measurement": "mRNA expression level of KRAS", "setting": "[1]; HCT116 colon cancer cells (KRAS G13D), GW8510 0, 1, 5 or 10 μM, 3, 6, 24 or 48 hours, effect from 6 hours, Endpoint PCR", "result": "decreased in a concentration-dependent manner"},
      {"measurement": "KRAS mRNA level", "setting": "[1]; MCF7 breast cancer cells (KRAS wild-type), Endpoint PCR", "result": "also reduced"},
      {"measurement": "KRAS mRNA level", "setting": "[1]; MIA PaCa-2 pancreatic cancer cells (KRAS G12C), Endpoint PCR", "result": "decreased"},
      {"measurement": "KRAS mRNA level", "setting": "[1]; PANC-1 pancreatic cancer cells (KRAS G12D), Endpoint PCR", "result": "decreased"},
      {"measurement": "KRAS mRNA level", "setting": "[1]; PC-3 prostate cancer cells (KRAS G13D), Endpoint PCR", "result": "decreased"},
      {"measurement": "KRAS protein level", "setting": "[6]", "result": "also decreased"}
    ]},
    {"compound": "CC1CNCCN1S(=O)(=O)c1cccc2cnccc12", "note": "(stereo not shown) [H7, reference compound]", "values": [
      {"measurement": "KRAS expression", "setting": "[1]; [7]", "result": "no change in KRAS expression"},
      {"measurement": "cell cycle", "setting": "[2]", "result": "arrested in the GO/G1 phase"}
    ]},
    {"compound": "CC(=O)c1c(C)c2cnc(Nc3ccc(N4CCNCC4)cn3)nc2n(C2CCCC2)c1=O", "note": "[PD0332991, reference compound]", "values": [
      {"measurement": "KRAS expression", "setting": "[1]; [7]", "result": "no change in KRAS expression"},
      {"measurement": "cell cycle", "setting": "[2]", "result": "arrested in the GO/G1 phase"}
    ]}
  ]
}
